Reference: patent publication US7285555B2, “6-aryl-7-halo-imidazo[1,2-a]pyrimidines as anticancer agents” (Wyeth Holdings Corporation, priority 2003, dated 2007)

Key:
S1-M1 cells = test: MTS cytotoxicity test procedure with S1-M1 cells; assay type: cell-based, human; conditions: for Ratio: IC50 on S1-M1 cells/IC50 on S1 cells
Text: (§1) Human cancer cell lines, unless otherwise noted, are obtained from the American Type Culture Collection (Rockville, Md.). The following drug-sensitive parental cell lines, and their derived drug-resistant counterparts, are obtained from the originators as listed: (a) S1 (parental line from a subclone of human colon carcinoma line LS174T) and derived S1-M1-3.2 (herein called S1-M1) which expresses the MXR drug transporter protein, are provided by Dr. L. Greenberger, Wyeth Research (Rabindran, S. K., He, H., Singh, M., Brown, E., Collins, K. I., Annable, T., and Greenberger, L. M. Reversal of a novel multidrug resistance mechanism in human colon carcinoma cells by fumitremorgin C. Cancer Res., 58: 5850-5858,1998); (b) parental HL-60 human promyelocytic leukemia line and derived HL-60/ADR, which expresses the MRP1 drug transporter protein, are provided by Dr. M. Center, University of Kansas (McGrath, T., and Center, M. S. Adriamycin resistance in HL60 cells in the absence of detectable P-glycoprotein. Biochem. Biophys. […] J. Biol. Chem., 261: 7762-7770, 1986) via Dr. L. Greenberger, Wyeth Research.
(§2) The MTS assay, which is sold in kit form by Promega (Madison, Wis.; CellTiter 96 AQueous Non-Radioactive Cell Proliferation Assay), is based on the conversion by viable cells, but not by dead cells, of the tetrazolium salt, MTS (3-(4,5-dimethylthiazol-2-yl)-5-(3-carboxymethoxyphenyl)-2-(4-sulphophenyl)-2H-tetrazolium, inner salt), into a water-soluble colored formazan which is detected by spectrophotometry. Compounds are tested at nine concentrations, in order to determine IC50 values. For the test procedure, cells are harvested by trypsinization (or, in the case of non-adherent cells, by simple resuspension), washed, counted and distributed to wells of 96-well flat-bottom microtiter plates at 1000 cells per well in 200 μL of medium. In addition, one row of wells on a separate plate receives cells as above (“time 0” plate). All plates are incubated at 370 in humidified 5% CO2 in air for about 24 hr.
(§3) On day 2, compounds for test are diluted and added to wells. Compounds are dissolved in DMSO at 10 mg/mL. For each compound, nine serial 2-fold dilutions are prepared in DMSO. Ten μL of each dilution in DMSO is transferred to 100 μL of medium, mixed well, and then 5 μL of this dilution is transferred in quadruplicate to wells containing cells. […] Plates are returned to the incubator for three days. At the time of drug addition to the experimental plates, the MTS assay is run on the “time 0” plate.
(§4) After three days of culture with test compounds (day 5 overall), the MTS assay is done on all wells of the experimental plates. The absorbance values of the quadruplicate sample wells are averaged and divided by the average of the “time 0” values. […]

HL-60/ADR cells = test: MTS cytotoxicity test procedure with HL-60/ADR cells; assay type: cell-based, human; conditions: for Ratio: IC50 on HL-60/ADR cells/IC50 on HL-60 cells
Text: as §1, §2, §3
After three days of culture with test compounds (day 5 overall), the MTS assay is done on all wells of the experimental plates. The absorbance values of the quadruplicate sample wells are averaged and divided by the average of the “time 0” values. […] The nine values for each compound are plotted against concentration, and the concentration that produces a relative color yield half way between the maximum and minimum is taken as the IC50 value.
HL-60/ADR cells overexpress the multidrug resistance protein MRP1 which mediates resistance to some chemotherapeutics (Gottesman, M. M., Fojo, T., and Bates, S. E. Multidrug resistance in cancer: role of ATP-dependent transporters. Nature Rev. Cancer, 2: 48-58, 2002). The IC50 values of example 6 of this invention, as well as reference compounds, on HL-60/ADR are compared to values on the sensitive parental HL-60 line.

COLO 205 cells = test: MTS cytotoxicity test procedure with COLO 205 cells; assay type: cell-based; conditions: Homo sapiens, 72 h, MTS assay, three days of culture
Method: as §2
On day 2, compounds for test are diluted and added to wells. Compounds are dissolved in DMSO at 10 mg/mL. For each compound, nine serial 2-fold dilutions are prepared in DMSO. Ten μL of each dilution in DMSO is transferred to 100 μL of medium, mixed well, and then 5 μL of this dilution is transferred in quadruplicate to wells containing cells. The final high concentration of each compound is typically 1-5 μM. Plates are returned to the incubator for three days. At the time of drug addition to the experimental plates, the MTS assay is run on the “time 0” plate. This gives the “time 0 MTS value” which is related to the number of viable cells per well at the time of drug addition.
After three days of culture with test compounds (day 5 overall), the MTS assay is done on all wells of the experimental plates. The absorbance values of the quadruplicate sample wells are averaged and divided by the average of the “time 0” values. The average of control wells without drug, divided by the average “time 0” value, gives the maximal relative increase in MTS color yield due to cell growth during the final three days of culture. The average of control wells with high drug concentration, divided by the “time 0” value, gives the minimal relative color yield for cells that were completely killed. The nine values for each compound are plotted against concentration, and the concentration that produces a relative color yield half way between the maximum and minimum is taken as the IC50 value.
COLO 205 is a human colon carcinoma cell line that is used for comparative testing of the examples of this invention and several reference compounds (Table 1). This line is sensitive to paclitaxel and vincristine.

HL-60 cells = test: MTS cytotoxicity test procedure with HL-60 cells; assay type: cell-based; conditions: Homo sapiens, MTS assay, means of 2 independent experiments
Text: (§5) Human cancer cell lines, unless otherwise noted, are obtained from the American Type Culture Collection (Rockville, Md.). […]
(§6) The MTS assay, which is sold in kit form by Promega (Madison, Wis.; CellTiter 96 AQueous Non-Radioactive Cell Proliferation Assay), is based on the conversion by viable cells, but not by dead cells, of the tetrazolium salt, MTS (3-(4,5-dimethylthiazol-2-yl)-5-(3-carboxymethoxyphenyl)-2-(4-sulphophenyl)-2H-tetrazolium, inner salt), into a water-soluble colored formazan which is detected by spectrophotometry. […] For the test procedure, cells are harvested by trypsinization (or, in the case of non-adherent cells, by simple resuspension), washed, counted and distributed to wells of 96-well flat-bottom microtiter plates at 1000 cells per well in 200 μL of medium. […]
as §4

S1 cells = test: MTS cytotoxicity test procedure with S1 cells; assay type: cell-based; conditions: Homo sapiens, MTS assay, means of 2 independent experiments
Text: as §5, §6, §4

With `CN(C)CCCOc1cc(F)c(-c2c(Cl)nc3nccn3c2C2CCCCCC2)c(F)c1` [Example 6, 3-[4-(7-Chloro-5-cycloheptylimidazo[1,2-a]pyrimidin-6-yl)-3,5-difluorophenoxy]-N,N-dimethylpropan-1-amine] the IC50 (S1-M1 cells; Homo sapiens, MTS assay, S1-M1 cells, means of 2 independent experiments) was 68 nM, the Ratio (S1-M1 cells) was 1.1 and the Ratio (S1-M1 cells; listed as example 6) was “no resistance”. The IC50 (HL-60/ADR cells; Homo sapiens, HL60/ADR, MTS assay, HL-60/ADR cells, means of 2 independent experiments) was 29 nM, the Ratio (HL-60/ADR cells) was 0.55 and the Ratio (HL-60/ADR cells; listed as example 6) was “no resistance”. For the same compound, the IC50 (COLO 205 cells) was 45 nM, the IC50 (HL-60 cells) was 53 nM and the IC50 (S1 cells) was 63 nM.
